Inconclusive results and toxic doses are left out. Rule for the calls: active = survival T/C of 150% or more; inactive = T/C below 125% in these data. Non-standard residues stand in square brackets, D forms with d. Residues, ends and D or L forms follow the SMILES beside them. ξ: configuration not given here. *: point of attachment. ξAsp(βξ-Me) = CC(C(=O)O)C(N)C(=O)O; X5 = CC(N*)C1NC(=O)C2CCCCN2C1=O; ξAbu(3ξ-NH2) = CC(N)C(N)C(=O)O; X4 = CCC(C)CCC/C=C/CC(=O)*
System: CD2F1 mice, L1210 leukemia ip, survival T/C
Assay: NCI In Vivo Anticancer Drug Screen. Data for tumor model L1210 Leukemia (intraperitoneal) in CD2F1 (CDF1) mice
Details: higher = longer survival
In short: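 Mice carrying a transplanted tumor received test compound or vehicle alone. The value is the measurement in the treated group divided by that in the vehicle-treated control group.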

[1] = endpoint: mean survival time, dose: 50.0 mg/kg/injection, schedule: Q01DX009 (ip), vehicle: saline with Tween-80
[2] = endpoint: mean survival time, dose: 100.0 mg/kg/injection, schedule: Q01DX009 (ip), vehicle: saline with Tween-80
[3] = endpoint: mean survival time, dose: 200.0 mg/kg/injection, schedule: Q01DX009 (ip), vehicle: saline with Tween-80
[4] = endpoint: mean survival time, dose: 400.0 mg/kg/injection, schedule: Q01DX009 (ip), vehicle: saline with Tween-80
[5] = endpoint: mean survival time, dose: 100.0 mg/kg/injection, schedule: Q04DX003 (ip), vehicle: other
[6] = endpoint: mean survival time, dose: 400.0 mg/kg/injection, schedule: Q04DX003 (ip), vehicle: other
[7] = endpoint: mean survival time, dose: 100.0 mg/kg/injection, schedule: Q04DX003 (ip), vehicle: saline with Tween-80
[8] = endpoint: mean survival time, dose: 100.0 mg/kg/injection, schedule: Q01DX009 (ip), vehicle: other

Measured: T/C

CCC(C)CCC/C=C/CC(=O)NC(CC(=O)O)C(=O)NC(C(=O)NC(CC(=O)O)C(=O)NCC(=O)NC(CC(=O)O)C(=O)NCC(=O)NC(C(=O)NC(C(=O)N1CCCC1C(=O)NC(C)C1NC(=O)C2CCCCN2C1=O)C(C)C)C(C)N)C(C)C(=O)O (stereo not drawn) (X4-D[ξAsp(βξ-Me)]DGDG[ξAbu(3ξ-NH2)]VP-X5; configuration not given here)
inactive: endpoint: mean survival time, dose: 100.0 mg/kg/injection, schedule: Q01DX009 (ip), vehicle: saline + alcohol 93 % of control | endpoint: mean survival time, dose: 200.0 mg/kg/injection, schedule: Q01DX009 (ip), vehicle: saline + alcohol 87 % of control

CC(O)(c1ccccc1)C(CCl)N1CCCCC1 (stereo not drawn)
inactive: [1] 95 % of control | [2] 97 % of control | [3] 91 % of control

CC(=O)C1=CCC2C3CC=C4CC(OC#N)CCC4(C)C3CCC12C (stereo not drawn)
inactive: [2] 97 % of control | [3] 92 % of control | [4] 89 % of control

O=C(O)CCSc1ccc2c(c1)CCCC2
inactive: endpoint: mean survival time, dose: 100.0 mg/kg/injection, schedule: Q01DX009 (ip), vehicle: Klucel (hydroxypropylcellulose) (HPC) 101 % of control | endpoint: mean survival time, dose: 200.0 mg/kg/injection, schedule: Q01DX009 (ip), vehicle: Klucel (hydroxypropylcellulose) (HPC) 98 % of control

BrCCOc1ccccc1
inactive: [5] 108 % of control | endpoint: mean survival time, dose: 200.0 mg/kg/injection, schedule: Q04DX003 (ip), vehicle: other 97 % of control | [6] 86 % of control

c1ccc2snnc2c1
inactive: endpoint: mean survival time, dose: 100.0 mg/kg/injection, schedule: Q01DX001 (ip), vehicle: other 97 % of control | endpoint: mean survival time, dose: 200.0 mg/kg/injection, schedule: Q01DX001 (ip), vehicle: other 103 % of control | endpoint: mean survival time, dose: 400.0 mg/kg/injection, schedule: Q01DX001 (ip), vehicle: other 88 % of control

c1ccc(CN2CCNCC2)cc1
inactive: endpoint: mean survival time, dose: 6.25 mg/kg/injection, schedule: Q04DX003 (ip), vehicle: saline with Tween-80 96 % of control | endpoint: mean survival time, dose: 12.5 mg/kg/injection, schedule: Q04DX003 (ip), vehicle: saline with Tween-80 96 % of control | endpoint: mean survival time, dose: 25.0 mg/kg/injection, schedule: Q04DX003 (ip), vehicle: saline with Tween-80 101 % of control

CCCCOP(=O)(OCCCC)OC(=C(Cl)Cl)P(=O)(OCCCC)OCCCC
inactive: endpoint: mean survival time, dose: 100.0 mg/kg/injection, schedule: Q04DX002 (ip), vehicle: saline 89 % of control | endpoint: mean survival time, dose: 200.0 mg/kg/injection, schedule: Q04DX002 (ip), vehicle: saline 92 % of control

CCOC12CC3C4=CCOC5CC(=O)N6c7ccccc7C1(CCN2C4)C6C53 (stereo not drawn)
inactive: endpoint: mean survival time, dose: 5.0 mg/kg/injection, schedule: Q01DX001 (ip), vehicle: saline 98 % of control | endpoint: mean survival time, dose: 10.0 mg/kg/injection, schedule: Q01DX001 (ip), vehicle: saline 101 % of control | endpoint: mean survival time, dose: 20.0 mg/kg/injection, schedule: Q01DX001 (ip), vehicle: saline 95 % of control | endpoint: mean survival time, dose: 40.0 mg/kg/injection, schedule: Q01DX001 (ip), vehicle: saline 97 % of control

CC1(CO)C2C=CC(C2)C1(C)CO (stereo not drawn)
inactive: endpoint: mean survival time, dose: 75.0 mg/kg/injection, schedule: Q01DX001 (ip), vehicle: saline 105 % of control | endpoint: mean survival time, dose: 150.0 mg/kg/injection, schedule: Q01DX001 (ip), vehicle: saline 105 % of control

Cc1ccnc(NS(=O)(=O)c2ccc(N)cc2)n1
inactive: endpoint: mean survival time, dose: 100.0 mg/kg/injection, schedule: Q01DX009 (ip), vehicle: saline 100 % of control | endpoint: mean survival time, dose: 200.0 mg/kg/injection, schedule: Q01DX009 (ip), vehicle: saline 96 % of control | endpoint: mean survival time, dose: 400.0 mg/kg/injection, schedule: Q01DX009 (ip), vehicle: saline 97 % of control

CSc1ccccc1N=Cc1cc(Cl)ccc1O
inactive: endpoint: mean survival time, dose: 25.0 mg/kg/injection, schedule: Q01DX001 (ip), vehicle: saline with Tween-80 96 % of control | endpoint: mean survival time, dose: 50.0 mg/kg/injection, schedule: Q01DX001 (ip), vehicle: saline with Tween-80 96 % of control | endpoint: mean survival time, dose: 100.0 mg/kg/injection, schedule: Q01DX001 (ip), vehicle: saline with Tween-80 96 % of control

O=CCCOCCCl
inactive: [7] 103 % of control | endpoint: mean survival time, dose: 200.0 mg/kg/injection, schedule: Q04DX003 (ip), vehicle: saline with Tween-80 95 % of control | endpoint: mean survival time, dose: 400.0 mg/kg/injection, schedule: Q04DX003 (ip), vehicle: saline with Tween-80 100 % of control

Nc1ncnc2c1ncn2C1OC(CCC(=O)NCCc2c[nH]c3ccccc23)C(O)C1O (stereo not drawn)
inactive: endpoint: median survival time, dose: 10.63 mg/kg/injection, schedule: Q01DX005 (ip), vehicle: distilled water + Tween-80 101 % of control | endpoint: median survival time, dose: 21.25 mg/kg/injection, schedule: Q01DX005 (ip), vehicle: distilled water + Tween-80 102 % of control | endpoint: median survival time, dose: 42.5 mg/kg/injection, schedule: Q01DX005 (ip), vehicle: distilled water + Tween-80 97 % of control | endpoint: median survival time, dose: 85.0 mg/kg/injection, schedule: Q01DX005 (ip), vehicle: distilled water + Tween-80 96 % of control | endpoint: median survival time, dose: 170.0 mg/kg/injection, schedule: Q01DX005 (ip), vehicle: distilled water + Tween-80 101 % of control

c1ccc(CCNCc2ccccc2)cc1
inactive: endpoint: mean survival time, dose: 25.0 mg/kg/injection, schedule: Q01DX009 (ip), vehicle: saline with Tween-80 94 % of control | [1] 98 % of control | endpoint: mean survival time, dose: 50.0 mg/kg/injection, schedule: Q04DX003 (ip), vehicle: saline with Tween-80 104 % of control | [2] 88 % of control | [7] 97 % of control

COc1ccccc1/C=C\C(=O)C1COCN1 (stereo not drawn)
inactive: endpoint: mean survival time, dose: 37.5 mg/kg/injection, schedule: Q01DX009 (ip), vehicle: saline 98 % of control | endpoint: mean survival time, dose: 75.0 mg/kg/injection, schedule: Q01DX009 (ip), vehicle: saline 98 % of control | endpoint: mean survival time, dose: 150.0 mg/kg/injection, schedule: Q01DX009 (ip), vehicle: saline 98 % of control

COC1=C(OC)C(=O)C(C/C=C(\C)CCCC(C)CCCC(C)CCCC(C)C)=C(C)C1=O (stereo not drawn)
inactive: [8] 94 % of control | endpoint: mean survival time, dose: 200.0 mg/kg/injection, schedule: Q01DX009 (ip), vehicle: other 95 % of control | endpoint: mean survival time, dose: 400.0 mg/kg/injection, schedule: Q01DX009 (ip), vehicle: other 94 % of control

O=C1C(F)=C(F)C(=O)C(F)=C1F
inactive: endpoint: mean survival time, dose: 3.12 mg/kg/injection, schedule: Q01DX009 (ip), vehicle: Klucel (hydroxypropylcellulose) (HPC) 97 % of control | endpoint: mean survival time, dose: 6.25 mg/kg/injection, schedule: Q01DX009 (ip), vehicle: Klucel (hydroxypropylcellulose) (HPC) 98 % of control

CC(C)C1CCC(C)C(C(O)(C(F)(F)F)C(F)(F)F)C1=O (stereo not drawn)
inactive: endpoint: mean survival time, dose: 100.0 mg/kg/injection, schedule: Q04DX003 (ip), vehicle: Klucel (hydroxypropylcellulose) (HPC) 96 % of control | endpoint: mean survival time, dose: 200.0 mg/kg/injection, schedule: Q04DX003 (ip), vehicle: Klucel (hydroxypropylcellulose) (HPC) 95 % of control | endpoint: mean survival time, dose: 400.0 mg/kg/injection, schedule: Q04DX003 (ip), vehicle: Klucel (hydroxypropylcellulose) (HPC) 96 % of control

CS(=O)(=O)OC1CS(=O)(=O)Cc2ccccc21 (stereo not drawn)
inactive: endpoint: mean survival time, dose: 100.0 mg/kg/injection, schedule: Q01DX001 (ip), vehicle: carboxymethylcellulose (CMC) 101 % of control | endpoint: mean survival time, dose: 200.0 mg/kg/injection, schedule: Q01DX001 (ip), vehicle: carboxymethylcellulose (CMC) 101 % of control | endpoint: mean survival time, dose: 400.0 mg/kg/injection, schedule: Q01DX001 (ip), vehicle: carboxymethylcellulose (CMC) 101 % of control

CC(C)(C)OC(=O)Cc1ncnc2c1ncn2C1OC(CO)C(O)C1O (stereo not drawn)
inactive: endpoint: mean survival time, dose: 12.5 mg/kg/injection, schedule: Q01DX005 (ip), vehicle: distilled water + Tween-80 103 % of control | endpoint: mean survival time, dose: 25.0 mg/kg/injection, schedule: Q01DX005 (ip), vehicle: distilled water + Tween-80 102 % of control | endpoint: mean survival time, dose: 50.0 mg/kg/injection, schedule: Q01DX005 (ip), vehicle: distilled water + Tween-80 96 % of control | endpoint: mean survival time, dose: 100.0 mg/kg/injection, schedule: Q01DX005 (ip), vehicle: distilled water + Tween-80 97 % of control | endpoint: mean survival time, dose: 200.0 mg/kg/injection, schedule: Q01DX005 (ip), vehicle: distilled water + Tween-80 102 % of control

CCOC(=O)CCC(C(=O)OCC)N1C(=O)c2ccccc2C1=O (stereo not drawn)
inactive: endpoint: mean survival time, dose: 25.0 mg/kg/injection, schedule: Q04DX002 (ip), vehicle: saline with Tween-80 100 % of control | endpoint: mean survival time, dose: 50.0 mg/kg/injection, schedule: Q04DX002 (ip), vehicle: saline with Tween-80 103 % of control | endpoint: mean survival time, dose: 100.0 mg/kg/injection, schedule: Q04DX002 (ip), vehicle: saline with Tween-80 100 % of control

Clc1ccc(N=C/C=C/c2ccccc2)cc1
inactive: endpoint: mean survival time, dose: 25.0 mg/kg/injection, schedule: Q01DX009 (ip), vehicle: other 101 % of control | endpoint: mean survival time, dose: 50.0 mg/kg/injection, schedule: Q01DX009 (ip), vehicle: other 97 % of control | [8] 95 % of control | [5] 87 % of control | [6] 89 % of control

CCOC(=O)C(O)c1ccccc1 (stereo not drawn)
inactive: [2] 101 % of control | [3] 96 % of control | [4] 93 % of control

CSc1nc(NN)n2nccc2n1
inactive: endpoint: median survival time, dose: 50.0 mg/kg/injection, schedule: Q01DX005 (ip), vehicle: saline 104 % of control | endpoint: median survival time, dose: 100.0 mg/kg/injection, schedule: Q01DX005 (ip), vehicle: saline 103 % of control

Reference: PubChem BioAssay AID256 (DTP/NCI, 2004)
